Source: US12678463B2, “Activated mesenchymal stem cells for treating limb ischemia” (Cellin Technologies OÜ, priority 2019, dated 2026)

Legend:
Type in all cases: cell-based, human
AdMSCs [1] = test: Cell cycle analysis by propidium iodide staining and flow cytometry; conditions: 24 h after treatment; for percentage of cells in G0/G1 phase: non-treated control 82%, paracetamol 4.4 mM, diclofenac 10 μM, metamizole 10 μM, ketoprofen 50 μM, prednisolone 0.1 μM; for percentage of cells in G2/M cell cycle phase: vs non-treated control
Method: FIG. 2. Cell cycle analysis of control and AIDs-treated AdMSCs. AIDs-treated and control AdMSCs were stained with propidium iodide (PI) 24 h after treatments and analyzed using flow cytometry by BD Accuri C6.
The percentage of cells in G0/1 phase was lower in the cultures treated with metamizole (Analgin™) (65%) and paracetamol (71%), whereas the percentage of cells in G2/M cell cycle phase was increased in these cultures (FIG. 2).

AdMSCs [2] = test: RT-qPCR of angiogenic marker mRNA in AIDs-treated AdMSCs; conditions: 24 h treatment, relative to untreated AdMSCs, normalized with GAPDH
Method: VEGFA, HGF, bFGF and TEK mRNA expression levels in AdMSCs treated with AIDs for 24 h were measured in triplicates by RT-qPCR and normalized with GAPDH mRNA expression levels. Data from AIDs-treated cells were calculated relatively to control untreated AdMSCs and results are represented in a log scale. Positive values indicated increased and negative values decreased mRNA levels compared to control untreated cells.
Numerous soluble factors produced by MSCs are involved in the regulation of angiogenesis and neovascularisation in vivo (Estrada et al., 2009). […] The effect of the AIDs on expression of angiogenic factors in AdMSCs was analyzed. Different AIDs affected the expression of angiogenic factors differently either stimulating or suppressing their expression.

AdMSCs [3] = test: ELISA of secreted inflammatory factors in culture media of AdMSCs; conditions: for effect on CCL2 level / effect on CXCL8 level / effect on IL6 level: LPS-stimulated AdMSC cultures, 24 h; for secreted IL-1RN concentration / secreted IL6 concentration / secreted CCL2 concentration / secreted CXCL8 concentration: LPS-stimulated, AIDs-treated 24 h; for secreted IL-1RN concentration: control + LPS 61 ± 18; for secreted IL6 concentration: control + LPS 210 ± 22; for secreted CCL2 concentration: control + LPS 461 ± 19.9; for secreted CXCL8 concentration: control + LPS 2373 ± 109; for IL-1RN level in culture media over time / IL6 level in culture media over time: LPS-treated cultures, single treatment; for IL-1RN level in culture media over time: serum-deficient, 24, 48 and 72 h; for IL6 level in culture media over time: serum-deficient, 24, 48 and 72 h (prednisolone: at 72 h)
Method: FIG. 5. Changes of inflammatory factors in culture media. Secreted IL6, CXCL8, CCL2 and IL1RN levels were measured from the conditional media of control, LPS-stimulated, and LPS-stimulated and paracetamol or prednisolone-treated AdMSCs by ELISA at 24, 48 and 72 h and represented as normalized to control 24 h probe.
To mimic inflammatory conditions, AdMSCs were exposed to lipopolysaccharide (LPS) prior to AIDs treatments. […] Then, LPS-treated AdMSCs were exposed to AIDs to study their effect on cytokines in inflammatory conditions.

LPS-stimulated AdMSCs = test: RT-qPCR of inflammatory gene mRNA in LPS-stimulated AIDs-treated AdMSCs; conditions: 24 hours exposure, vs LPS-treated cells
Method: FIG. 4. Relative mRNA expression of inflammatory genes in LPS-stimulated and AIDs-treated for 24 h AdMSCs represented as heat map. Expression levels were measured in triplicates by RT-qPCR and normalized with GAPDH mRNA expression levels. Data from LPS-stimulated AIDs-treated AdMSCs were calculated as a relative fold difference compared to LPS-treated cells and converted to the log scale. The quantitative changes in gene expression are represented by shading: darker shade indicates up-regulation, whereas lighter shade indicates down-regulation. Expression data were visualized using GENE-E software.
FIG. 6. Heat map of the expression profile of inflammatory genes in LPS-stimulated and AIDs-treated AdMSCs. Inflammatory genes mRNA expression levels of LPS-stimulated and AIDs-treated for 48 h (A) and 72 h (B) AdMSCs were calculated as a fold difference compared to LPS-treated AdMSCs and represented as heat maps. Expression levels of inflammatory gene mRNAs were measured in triplicates by RT-qPCR, normalized with GAPDH mRNA levels and converted to the log scale. Positive values (darker shade) indicate higher expression, and negative values (lighter shade) lower expression relatively to the control LPS-treated AdMSCs.
Effects of AIDs on mRNA expression of inflammatory cytokines in AdMSCs were analyzed using RT-qPCR technique. Analyses results were visualized as a heat map graph using GENE-E platform (FIG. 4). Short-term treatment of AdMSCs by AIDs affected the expression of inflammatory cytokines. […] Expression of pro-inflammatory cytokines CCL2, CCL3, TNF, IL6, ILIA and ILIB was suppressed by ketoprofen and metamizole (Analgin™) treatments.
Effects of repeated AIDs treatments (48 and 72 h) on mRNA expression of cytokines in AdMSCs were analyzed using RT-qPCR technique. Differential expression of cytokine genes is represented as a heat map in FIG. 6. […] Upon exposure to various drugs, complex expression pattern of pro- and anti-inflammatory factors were observed. […] However, the stable induced expression of anti-inflammatory factors (IL4, TNFAIP6, IDO1) was not observed.

AdMSCs [4] = test: ELISA of secreted inflammatory factors in culture media of AdMSCs; conditions: for secreted IL-1RN concentration / secreted IL6 concentration / secreted CCL2 concentration / secreted CXCL8 concentration: AIDs-treated 24 h; for secreted IL-1RN concentration: control 2.3 ± 0.03; for secreted IL6 concentration: control 40 ± 2; for secreted CCL2 concentration: control 96 ± 3.2; for secreted CXCL8 concentration: control 277 ± 12.7
AdMSCs [5] = test: WST-1 metabolic activity assay of AdMSCs treated with anti-inflammatory drugs; conditions: first 24 hours; metamizole 10 μM
Method: AdMSCs metabolic activity was measured at 1, 2, 3 and 5 days after the treatments.
During the first 48 hours, all analyzed AIDs stimulated the metabolic activity of AdMSCs.

[6] = standard culture conditions, no LPS
[7] = LPS-treated cultures, single treatment, serum-deficient, 24, 48 and 72 h

SMILES | percentage of cells in G0/G1 phase (AdMSCs [1]) [%] | HGF mRNA expression (AdMSCs [2]) | TEK mRNA expression (AdMSCs [2]) | VEGFA mRNA expression (AdMSCs [2]) | bFGF mRNA expression (AdMSCs [2]) | effect on CCL2 level (AdMSCs [3]) | effect on CXCL8 level (AdMSCs [3]) | effect on IL6 level (AdMSCs [3]) | secreted IL-1RN concentration (AdMSCs [3]) [pg/mL] | secreted IL6 concentration (AdMSCs [3]) [pg/mL] | secreted CCL2 concentration (AdMSCs [3]) [pg/mL] | secreted CXCL8 concentration (AdMSCs [3]) [pg/mL] | expression of pro-inflammatory cytokines CCL2, CCL3, TNF, IL6, ILIA and ILIB (mRNA) (LPS-stimulated AdMSCs) | secreted IL-1RN concentration (AdMSCs [4]; no LPS) [pg/mL] | secreted IL6 concentration (AdMSCs [4]; no LPS) [pg/mL] | secreted CCL2 concentration (AdMSCs [4]; no LPS) [pg/mL] | secreted CXCL8 concentration (AdMSCs [4]; no LPS) [pg/mL] | effect on synthesis and secretion of immunomodulatory factors (AdMSCs [4]; [6]) | IL-1RN level in culture media over time (AdMSCs [3]) | IL6 level in culture media over time (AdMSCs [3]) | further results
CC(C(=O)O)c1cccc(C(=O)c2ccccc2)c1 (centres unmarked) [ketoprofen] | 80 | up-regulation | up-regulation | up-regulation | up-regulation | no effect | stimulated | stimulated | 12 ± 0.5 | 440 ± 143 | 451 ± 31.8 | 2509 ± 68 | suppressed | 0 | 10 ± 1 | 165 ± 23.4 | 301 ± 0.3 | minor effect | – | – | –
C[C@]12C=CC(=O)C=C1CC[C@@H]1[C@@H]2[C@@H](O)C[C@@]2(C)[C@H]1CC[C@]2(O)C(=O)CO [prednisolone] | 77 | inhibited | opposite effect | inhibited | opposite effect | – | significantly reduced | significantly reduced | 33 ± 2 | 50 ± 12 | 314 ± 23.2 | 402 ± 51 | – | 7.3 ± 0.20 | 30 ± 2 | 100 ± 12.2 | 35 ± 0.1 | minor effect | inhibited | moderately induced | CCL2 level in culture media over time (AdMSCs [4]; [7]): significantly stimulated
Cc1c(N(C)CS(=O)(=O)O)c(=O)n(-c2ccccc2)n1C [metamizole (Analgin™), metamizole] | 65 | up-regulation | up-regulation | up-regulation | up-regulation | Inhibitory effect | – | – | 12 ± 1 | 180 ± 29 | 313 ± 43.9 | 1816 ± 121 | suppressed | 3.9 ± 0.03 | 30 ± 1 | 109 ± 3.2 | 341 ± 4.7 | minor effect | – | – | cellular metabolism (WST-1 metabolic activity) (AdMSCs [5]): significantly stimulated; percentage of cells in G2/M cell cycle phase (AdMSCs [1]): increased; effect on IL1RN expression (AdMSCs [4]; LPS-stimulated AdMSC cultures, 24 h): Inhibitory effect
O=C(O)Cc1ccccc1Nc1c(Cl)cccc1Cl [diclofenac] | 81 | no effect | no effect | no effect | no effect | no effect | stimulated | stimulated | 17 ± 2 | 390 ± 4 | – | 2807 ± 361 | – | – | 50 ± 1 | 64 ± 8.4 | – | minor effect | – | – | TGFβ1 and TGFβ3 mRNA expression (LPS-stimulated AdMSCs): suppressed; TGFβ2 mRNA expression (LPS-stimulated AdMSCs): stimulated
CC(=O)Nc1ccc(O)cc1 [paracetamol] | 71 | inhibited | strongly suppressed | inhibited | induced | – | significantly reduced | significantly reduced | 33 ± 9 | 90 ± 14 | 270 ± 29.9 | 623 ± 41 | – | 11.0 ± 0.65 | 0 | 8 ± 0.4 | 11 ± 0.1 | minor effect | no significant effects | no significant effects | percentage of cells in G2/M cell cycle phase (AdMSCs [1]): increased; TGFβ1 and TGFβ3 mRNA expression (LPS-stimulated AdMSCs): suppressed; TGFβ2 mRNA expression (LPS-stimulated AdMSCs): stimulated; CCL2 level in culture media over time (AdMSCs [4]; [7]): lowered; CXCL8 level in culture media over time (AdMSCs [4]; [7]): no significant effects; CCL2 level in culture media compared to untreated cells (AdMSCs [4]; [6]): significant reduction; CXCL8/IL8 level in culture media compared to untreated cells (AdMSCs [4]; [6]): significant reduction; IL6 level in culture media compared to untreated cells (AdMSCs [4]; [6]): significant reduction
